ChEMBL document CHEMBL5257160, “Siderophore conjugates to combat antibiotic-resistant bacteria” (2023)
Converted amounts (≈) assume the structure as drawn. Numbered stars: 1 amine (or outer) side, 2 acyl side, 3 side chain; on linkers, the order of the positions; unused ones are H or OH. Square brackets hold non-standard residues; d marks the D form. Peptide text beside a SMILES is read from it. X1 = Cn1c(=O)n([C@@H]2S[C@H]([C@H](O)[C@@H](N[*:1])C(=O)[*:2])[C@@H](O)[C@H]2O)cc/c1=N\C(N)=O; Orn(N5-OH,N5-Ac) = CC(=O)N(O)CCC[C@H](N)C(=O)O

Assays:
Assay type in all cases: functional
Yersinia enterocolitica = assay: Antibacterial activity against Yersinia enterocolitica assessed as inhibition of bacterial growth in iron depleting media incubated for 20 hrs by CLSI protocol based assay
Streptococcus pneumoniae = assay: Antibacterial activity against Streptococcus pneumoniae assessed as inhibition of bacterial growth
Acinetobacter baumannii = assay: Antibacterial activity against carbapenem - resistant Acinetobacter baumannii
Enterobacter sp. = assay: Antibacterial activity against Enterobacter sp. assessed as inhibition of bacterial growth
Proteus sp. = assay: Antibacterial activity against Proteus sp. assessed as inhibition of bacterial growth; details: Proteus sp. (in: enterobacteria)
[1] = test system: Stenotrophomonas maltophilia; assay: Antibacterial activity against Stenotrophomonas maltophilia assessed as inhibition of bacterial growth
Pseudomonas aeruginosa = assay: Antibacterial activity against Pseudomonas aeruginosa assessed as inhibition of bacterial growth
Enterobacteriaceae = assay: Antibacterial activity against Enterobacteriaceae assessed as inhibition of bacterial growth
Escherichia coli = assay: Antibacterial activity against Escherichia coli assessed as inhibition of bacterial growth
Klebsiella sp. = assay: Antibacterial activity against Klebsiella sp. assessed as inhibition of bacterial growth
Serratia sp. = assay: Antibacterial activity against Serratia sp. assessed as inhibition of bacterial growth; details: Serratia sp. (in: enterobacteria)

Q: Which results are given for `CC(=O)N(O)CCC[C@H](NC(=O)[C@H](CCCN(O)C(C)=O)NC(=O)[C@@H](N)CCCN(O)C(C)=O)C(=O)N[C@@H](CCC(=O)NCCNC(=O)CC[C@@H](NC(=O)c1ccc(N(C)Cc2cnc3nc(N)nc(N)c3n2)cc1)C(=O)O)C(=O)O`?
A: MIC (Yersinia enterocolitica): 0.0078 µg/mL (≈ 0.00683 µM); MIC (Streptococcus pneumoniae): 0.00196 µg/mL (≈ 0.00172 µM)

Q: With `C[C@@H]1S[C@@H]2[C@H](NC(=O)/C(=N/OC(C)(C)C(=O)O)c3csc(N)n3)C(=O)N2C(C(=O)[O-])=C1C[N+]12CCC(CNC(=O)c3ccc(O)c(O)c3Cl)(CC1)C2` as the compound, how does the MIC (Acinetobacter baumannii) read?
A: ≤ 0.03 µg/mL

Q: Which results are given for `CC(C)(O/N=C(\C(=O)N[C@@H]1C(=O)N(S(=O)(=O)O)C1CNC(=O)NCc1cc(=O)c(O)cn1O)c1csc(N)n1)C(=O)O` (some centres undefined)?
A: MIC90 (Enterobacter sp.): 8 µg/mL (≈ 12.6 µM); MIC90 (Proteus sp.): 0.12 µg/mL (≈ 0.19 µM); MIC90 [1]: 0.25 µg/mL (≈ 0.395 µM)

Q: For `C[C@H]1[C@H](NC(=O)/C(=N\OCc2cc(=O)c(O)cn2O)c2csc(N)n2)C(=O)N1OS(=O)(=O)O`, which MIC (Pseudomonas aeruginosa) is on record?
A: 2 µg/mL (≈ 3.96 µM)

Q: And the MIC (Enterobacteriaceae)?
A: ≤ 1 µg/mL

Q: Which MIC (Escherichia coli) does the source give for `CC(=O)N(O)CCC[C@H](NC(=O)[C@H](CCCN(O)C(C)=O)NC(=O)[C@@H](N)CCCN(O)C(C)=O)C(=O)N[C@@H](CO)C(=O)N[C@@H](C(=O)O)[C@@H](O)[C@H]1S[C@@H](n2cc/c(=N\C(N)=O)n(C)c2=O)[C@H](O)[C@@H]1O` (H-[Orn(N5-OH,N5-Ac)][Orn(N5-OH,N5-Ac)][Orn(N5-OH,N5-Ac)]S[X1]-OH) here?
A: 0.005 µg/mL (≈ 0.00504 µM)

Q: What about the MIC (Streptococcus pneumoniae) of the same compound?
A: 0.01 µg/mL (≈ 0.0101 µM)

Q: Which results are given for `CC(C)(O/N=C(\C(=O)N[C@@H]1C(=O)N2C(C(=O)[O-])=C(C[N+]3(CCNC(=O)c4ccc(O)c(O)c4Cl)CCCC3)CS[C@H]12)c1csc(N)n1)C(=O)O` [CEFIDEROCOL]?
A: MIC90 (Escherichia coli): 0.25 µg/mL (≈ 0.332 µM); MIC90 (Enterobacter sp.): 0.25 µg/mL (≈ 0.332 µM); MIC90 (Klebsiella sp.): 0.25 µg/mL (≈ 0.332 µM); MIC90 (Serratia sp.): 0.25 µg/mL (≈ 0.332 µM)
